According to patent publication US20240042046A1, “METHODS AND COMPOUNDS FOR MODULATING HUNTINGTON'S DISEASE” (Design Therapeutics, Inc., priority 2022, published 2024):

Tests used:
[1] = tested on: human HTT mRNA, SNP rs362331 C allele, GM09197 fibroblasts; experiment: Screening of HD molecules in GM09197 fibroblasts, allele-specific HTT mRNA by RT-PCR, C allele; type: cell-based; details: for GM 09197 E min 48 Hr C Allele (%): Emin = lowest % HTT observed within compound concentration 0.5 nM to 1000 nM; for IC50: Homo sapiens, Fibroblast, 48-hour incubation, C allele HTT mRNA normalized to GAPDH, relative to vehicle
Description: (§1) Molecular Biology Toolkit: • qPCR primer probe sets: • RNA input normalization was assessed utilizing human glyceraldehyde 3-phosphate dehydrogenase (hGAPDH) TaqMan assay (ThermoFisher cat #4351370) or Human Cyclophillin ([…]) TaqMan assay (ThermoFisher cat #4351372) • Total HTT detection was assessed utilizing human Htt TaqMan assay (ThermoFisher cat #4331182) • Allele-specific detection of human HTT expression in HD cells containing the SNP rs362331C/T (Exon 50): for each assay, allele-specific probes to detect the SNP variant contained locked nucleic acid bases to improve allele discrimination, as compared to unmodified DNA probes.
(§2) • qPCR was performed using Agpath ID one-step reverse transcriptase polymerase chain reaction (RT-PCR) reagent
(§3) Screening of HD molecules methods: GM09197 and/or GM04022 fibroblasts were cultured in T175 flasks incubated at 37° C. and 5% CO2. Once confluency was reached, the media was removed, the cells were washed with 1×PBS, and cells were dissociated using TrypLE™ Express Enzyme. Media was added to the enzyme and collected into a 15-mL conical tube and centrifuged at 500×g for 5 minutes to pellet the cells. Media and enzyme were aspirated using a serological pipette. Cells were resuspended in fresh media and counted using a Countess 3 Automated Cell Counter. Cells were plated at a density of 15,000 cells/well in a tissue culture-treated polystyrene 96-well dish and incubated at 37° C. and 5% CO2 overnight. The next day, media was removed using an 8-channel aspirator. 200 μL media/well are added back into the plate. The molecules are formulated to 1 mM and are dispensed using a Multidrop™ Pico 8 Digital Dispenser. After a 48-hour incubation with compounds, media was removed from plates, cells were washed with 1×PBS, and cells were lysed in 40 μL per well guanidinium thiocyanate buffer. RNA was isolated and purified in […] glass fiber column plates using chaotropic salts. Human mtHTT, wtHTT, and GAPDH mRNA were measured via RT-PCR using the ThermoFisher QuantStudio™ 7 Flex System in 384-well format. Results of HTT levels were normalized to GAPDH mRNA levels. Normalized HTT mRNA levels were expressed relative to vehicle-treated samples to assess fold change after molecule treatment.
(§4) Emin for each compound is the lowest % HTT concentration observed within a compound concentration of 0.5 nM to 1000 nM.

[2] = tested on: human HTT mRNA, SNP rs362331 T allele, GM09197 fibroblasts; experiment: Screening of HD molecules in GM09197 fibroblasts, allele-specific HTT mRNA by RT-PCR, T allele; type: cell-based; details: for Gm09197 Emin 48 hr T Allele (%): Emin = lowest % HTT observed within compound concentration 0.5 nM to 1000 nM; for IC50: Homo sapiens, Fibroblast, 48-hour incubation, T allele HTT mRNA normalized to GAPDH, relative to vehicle
Description: as §1, §2, §3, §4

SMILES	GM 09197 E min 48 Hr C Allele (%) [1]	Gm09197 Emin 48 hr T Allele (%) [2]	IC50 [2]	IC50 [1]
Cc1sc2c(c1C)C(c1ccc(Cl)cc1)=N[C@@H](CC(=O)Nc1ccc(OCCOCCOCCOCCOCCOCCOCCOCCOCCNC(=O)CCNC(=O)c3nc(NC(=O)c4cc(NC(=O)CCNC(=O)c5nc(NC(=O)CCCNC(=O)c6cc(NC(=O)c7nc(NC(=O)CCNC(=O)c8cc(NC(=O)c9nccn9C)cn8C)cn7C)cn6C)cn5C)cn4C)cn3C)cc1)c1nnc(C)n1-2 [Compound A-1]	A (A>90%)	C (C<80%)	0.114 µM	
Cc1cc(F)cc(C)c1Oc1ccc(C(C)(C)O)cc1-c1cn(C)c(=O)c2[nH]c(C(=O)Nc3ccc(OCCOCCOCCOCCOCCOCCOCCOCCOCCNC(=O)CCNC(=O)c4nc(NC(=O)c5cc(NC(=O)CCNC(=O)c6nc(NC(=O)CCCNC(=O)c7cc(NC(=O)c8nc(NC(=O)CCNC(=O)c9cc(NC(=O)c%10nccn%10C)cn9C)cn8C)cn7C)cn6C)cn5C)cn4C)cc3)cc12 [Compound A-7]	A (A>90%)	A (A>90%)	> 1 µM	
CCS(=O)(=O)Nc1ccc(Oc2ccc(F)cc2F)c(-c2cn(C)c(=O)c3[nH]c(C(=O)Nc4ccc(OCCOCCOCCOCCOCCOCCOCCOCCOCCNC(=O)c5cc(NC(=O)c6nc(NC(=O)[C@H](N)CCNC(=O)c7cc(NC(=O)c8nc(NC(=O)CCNC(=O)c9cc(NC(=O)c%10nccn%10C)cn9C)cn8C)cn7C)cn6C)cn5C)cc4)cc23)c1 [Compound A-21]	A (A>90%)	A (A>90%)		
CC(=O)Nc1c(F)cc(C(=O)NC2CCC(O)CC2)cc1O[C@@H](C)c1cccc(OCCOCCOCCOCCOCCOCCOCCOCCOCCOCCOCCOCCOCCOCCOCCOCCNC(=O)CCNC(=O)c2nc(NC(=O)c3cc(NC(=O)CCNC(=O)c4nc(NC(=O)CCCNC(=O)c5cc(NC(=O)c6nc(NC(=O)CCNC(=O)c7cc(NC(=O)c8nccn8C)cn7C)cn6C)cn5C)cn4C)cn3C)cn2C)c1 (stereo partly shown) [Compound A-31]	B (B is 90% to 80%)	B (B is 90% to 80%)		
CC(=O)Nc1c(F)cc(C(=O)N[C@H]2CC[C@H](O)CC2)cc1O[C@@H](C)c1cccc(C(=O)NCCOCCOCCOCCOCCOCCOCCOCCOCCOCCOCCOCCOCCOCCOCCOCCNC(=O)CCNC(=O)c2nc(NC(=O)c3cc(NC(=O)CCNC(=O)c4nc(NC(=O)CCCNC(=O)c5cc(NC(=O)c6nc(NC(=O)CCNC(=O)c7cc(NC(=O)c8nccn8C)cn7C)cn6C)cn5C)cn4C)cn3C)cn2C)c1 [Compound A-32]	B (B is 90% to 80%)	B (B is 90% to 80%)		
Cc1sc2c(c1C)C(c1ccc(Cl)cc1)=N[C@@H](CC(=O)Nc1ccc(OCCOCCOCCOCCOCCOCCOCCOCCOCCNC(=O)c3cc(NC(=O)c4nc(NC(=O)[C@H](N)CCNC(=O)c5cc(NC(=O)c6nc(NC(=O)CCNC(=O)c7cc(NC(=O)c8nccn8C)cn7C)cn6C)cn5C)cn4C)cn3C)cc1)c1nnc(C)n1-2 [Compound A-35]	A (A>90%)	B (B is 90% to 80%)		
CCS(=O)(=O)Nc1ccc(Oc2ccc(F)cc2F)c(-c2cn(C)c(=O)c3[nH]c(C(=O)Nc4ccc(OCCOCCOCCOCCOCCOCCOCCOCCOCCOCCOCCOCCOCCOCCOCCOCCNC(=O)c5cc(NC(=O)c6nc(NC(=O)[C@H](N)CCNC(=O)c7cc(NC(=O)c8nc(NC(=O)CCNC(=O)c9cc(NC(=O)c%10nccn%10C)cn9C)cn8C)cn7C)cn6C)cn5C)cc4)cc23)c1 [Compound A-36]	A (A>90%)	A (A>90%)		
Cc1sc2c(c1C)C(c1ccc(Cl)cc1)=N[C@@H](CC(=O)Nc1ccc(OCCOCCOCCOCCOCCOCCOCCOCCOCCNC(=O)c3cc(NC(=O)c4nc(NC(=O)c5cc(NC(=O)[C@@H](N)CCNC(=O)c6nc(NC(=O)CCNC(=O)c7cc(NC(=O)c8nccn8C)cn7C)cn6C)cn5C)cn4C)cn3C)cc1)c1nnc(C)n1-2 [Compound A-37]	B (B is 90% to 80%)	B (B is 90% to 80%)	> 1 µM	> 1 µM
Cc1sc2c(c1C)C(c1ccc(Cl)cc1)=N[C@@H](CC(=O)Nc1ccc(OCCOCCOCCOCCOCCOCCOCCOCCOCCOCCOCCOCCOCCOCCOCCOCCNC(=O)c3cc(NC(=O)c4nc(NC(=O)c5cc(NC(=O)[C@@H](N)CCNC(=O)c6nc(NC(=O)CCNC(=O)c7cc(NC(=O)c8nccn8C)cn7C)cn6C)cn5C)cn4C)cn3C)cc1)c1nnc(C)n1-2 [Compound A-38]	A (A>90%)	A (A>90%)		
CCS(=O)(=O)Nc1ccc(Oc2ccc(F)cc2F)c(-c2cn(C)c(=O)c3[nH]c(C(=O)Nc4ccc(OCCOCCOCCOCCOCCOCCOCCOCCOCCNC(=O)c5cc(NC(=O)c6nc(NC(=O)c7cc(NC(=O)[C@@H](N)CCNC(=O)c8nc(NC(=O)CCNC(=O)c9cc(NC(=O)c%10nccn%10C)cn9C)cn8C)cn7C)cn6C)cn5C)cc4)cc23)c1 [Compound A-39]	B (B is 90% to 80%)	B (B is 90% to 80%)		
CCS(=O)(=O)Nc1ccc(Oc2ccc(F)cc2F)c(-c2cn(C)c(=O)c3[nH]c(C(=O)Nc4ccc(OCCOCCOCCOCCOCCOCCOCCOCCOCCOCCOCCOCCOCCOCCOCCOCCNC(=O)c5cc(NC(=O)c6nc(NC(=O)c7cc(NC(=O)[C@@H](N)CCNC(=O)c8nc(NC(=O)CCNC(=O)c9cc(NC(=O)c%10nccn%10C)cn9C)cn8C)cn7C)cn6C)cn5C)cc4)cc23)c1 [Compound A-40]	A (A>90%)	A (A>90%)		
Cc1sc2c(c1C)C(c1ccc(Cl)cc1)=N[C@H](CC(=O)Nc1ccc(OCCOCCOCCOCCOCCOCCOCCOCCOCCOCCOCCOCCOCCOCCOCCOCCNC(=O)CCNC(=O)c3nc(NC(=O)c4cc(NC(=O)CCNC(=O)c5nc(NC(=O)CCCNC(=O)c6cc(NC(=O)c7nc(NC(=O)CCNC(=O)c8cc(NC(=O)c9nccn9C)cn8C)cn7C)cn6C)cn5C)cn4C)cn3C)cc1)c1nnc(C)n1-2 [Compound A-45]	C (C<80%)	C (C<80%)		
Cn1cc(NC(=O)c2nc(NC(=O)CCNC(=O)c3cc(NC(=O)c4nccn4C)cn3C)cn2C)cc1C(=O)NCCCC(=O)Nc1cn(C)c(C(=O)NCCC(=O)Nc2cc(C(=O)Nc3cn(C)c(C(=O)NCCC(=O)NCCOCCOCCOCCOCCN4C[C@H](Nc5cnn(C)c(=O)c5Br)C[C@H](c5ccccc5)C4)n3)n(C)c2)n1 [Compound A-47]	C (C<80%)	C (C<80%)	> 1 µM	> 1 µM
Cn1cc(NC(=O)c2nc(NC(=O)CCNC(=O)c3cc(NC(=O)c4nccn4C)cn3C)cn2C)cc1C(=O)NCCCC(=O)Nc1cn(C)c(C(=O)NCCC(=O)Nc2cc(C(=O)Nc3cn(C)c(C(=O)NCCC(=O)NCCOCCOCCOCCOCCOCCOCCOCCOCCN4C[C@H](Nc5cnn(C)c(=O)c5Br)C[C@H](c5ccccc5)C4)n3)n(C)c2)n1 [Compound A-48]	A (A>90%)	A (A>90%)		
Cn1cc(NC(=O)c2nc(NC(=O)CCNC(=O)c3cc(NC(=O)c4nccn4C)cn3C)cn2C)cc1C(=O)NCCCC(=O)Nc1cn(C)c(C(=O)NCCC(=O)Nc2cc(C(=O)Nc3cn(C)c(C(=O)NCCC(=O)NCCOCCOCCOCCOCCOCCOCCOCCOCCOCCOCCOCCOCCOCCOCCOCCN4C[C@H](Nc5cnn(C)c(=O)c5Br)C[C@H](c5ccccc5)C4)n3)n(C)c2)n1 [Compound A-49]	A (A>90%)	A (A>90%)		
Cc1noc(C)c1-c1ccc2c(c1)nc(CCc1ccc(OCCOCCOCCOCCOCCNC(=O)CCNC(=O)c3nc(NC(=O)c4cc(NC(=O)CCNC(=O)c5nc(NC(=O)CCCNC(=O)c6cc(NC(=O)c7nc(NC(=O)CCNC(=O)c8cc(NC(=O)c9nccn9C)cn8C)cn7C)cn6C)cn5C)cn4C)cn3C)c(Cl)c1)n2C[C@H](C)N1CCOCC1 [Compound A-52]	C (C<80%)	B (B is 90% to 80%)	> 1 µM	> 1 µM
